Measured values taken from patent US10632101B2, “Methods and compositions for supporting endogenous systems related to life span” (USANA Health Sciences, Inc., priority 2016, dated 2020).
Values belong to the compound of their own block, whether it stands above or below them.

Key:
[1] = target: T1, human PPARδ (Homo sapiens, UniProt Q03181); assay: PPARδ reporter cell assay, agonist mode; format: cell-based
T1 construct: expressed in transfected cells; host or cells: CHO
T1 sequence (Q03181 211-439 limits assumed): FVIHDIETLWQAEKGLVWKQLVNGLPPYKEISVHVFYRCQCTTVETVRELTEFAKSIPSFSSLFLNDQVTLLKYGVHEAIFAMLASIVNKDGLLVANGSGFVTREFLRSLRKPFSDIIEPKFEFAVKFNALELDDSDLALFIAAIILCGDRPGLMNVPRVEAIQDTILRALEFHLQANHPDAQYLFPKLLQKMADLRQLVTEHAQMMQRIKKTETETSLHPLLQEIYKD

[2] = target: T2, human PPARγ (Homo sapiens, UniProt P37231); assay: PPARγ reporter cell assay, agonist mode; format: cell-based
T2 construct: expressed in transfected cells; host or cells: CHO
T2 sequence (P37231 238-503 limits assumed): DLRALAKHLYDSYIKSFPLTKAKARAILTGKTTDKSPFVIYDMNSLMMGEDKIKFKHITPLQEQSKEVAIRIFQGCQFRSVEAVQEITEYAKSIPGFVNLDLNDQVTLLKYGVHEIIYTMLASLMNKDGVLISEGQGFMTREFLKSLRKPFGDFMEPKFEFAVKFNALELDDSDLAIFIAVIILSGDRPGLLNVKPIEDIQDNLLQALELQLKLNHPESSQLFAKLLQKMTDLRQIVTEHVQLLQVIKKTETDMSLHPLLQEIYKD

[3] = target: T3, human PPARα (Homo sapiens, UniProt Q07869); assay: PPARα reporter cell assay, agonist mode; format: cell-based
T3 construct: expressed in transfected cells; host or cells: CHO
T3 sequence (Q07869 239-466 limits assumed): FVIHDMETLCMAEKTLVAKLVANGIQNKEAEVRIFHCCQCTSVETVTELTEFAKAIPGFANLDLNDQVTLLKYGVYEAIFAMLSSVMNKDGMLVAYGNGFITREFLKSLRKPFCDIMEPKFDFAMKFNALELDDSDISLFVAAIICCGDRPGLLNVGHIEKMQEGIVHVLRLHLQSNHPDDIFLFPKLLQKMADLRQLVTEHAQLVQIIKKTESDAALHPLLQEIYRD

[4] = system: human NF-κB; assay: NF-κB reporter cell assay, antagonist mode; format: cell-based
[5] = system: C. elegans strain CB5586; assay: Phenotypic lifespan screening in C. elegans; format: in vivo; conditions: for Statistically Significant Result: 10 mg/ml compared to DMSO control; for effect on chronological lifespan: 0.1 and 10 mg/ml tested; for mean lifespan: DMSO control 13.23
Protocol: Dilutions of the test formulations were applied to individual populations of C. elegans and the lifespan of each population was monitored. Any changes in the lifespan of an individual population compared to a control population were recorded and correlated to the respective test formulation (N356 or N357) and the respective dilution (0.1 mg/ml, 1 mg/ml, and 10 mg/ml).
The N256 and N357 formulations were each prepared as individual 100 mg/ml stock solutions in dimethyl sulfoxide (DMSO). Serial dilutions of each stock solution were then prepared at 0.1 mg/ml, 1 mg/ml, and 10 mg/ml in DMSO. Control solutions of DMSO only were also prepared. Synchronous aged adult populations of C. elegans strain CB5586 worms were prepared. The CB5586 strain comprises a pharyngeal GFP (green fluorescent protein) tag and a mutation in the bus-5 gene. The pharyngeal GFP tag allows for fluorescent images of the worm populations to be taken. The mutation in the bus-5 gene causes the loss of normal cuticle antigens that permits the cuticle of the worms to become permeable to the test formulations and allow direct uptake of the test formulations to avoid interaction of the test formulations with protective mechanisms of the gut channel. Each serial dilution of each test formulation was added to a separate population of the prepared worms. The control solutions were also added to separate populations of the prepared worms. The populations of the prepared worms were then maintained on standard nematode growth media (NGM) agar plates at 20° C. with sufficient food (Escherichia coli strain OP-50).
Each worm population was then monitored by fluorescent imaging to determine the number of living and dead worms as a function of time. The fluorescent imaging was analyzed by software that recognized and counted worms based on their fluorescent intensity compared to background fluorescence. […] The ability to distinguish between living and dead worms allowed the number of living worms and a cumulative number of dead worms to be monitored against time. Worm populations from a selection of fluorescent images were manually checked to verify that the software had accurately counted the number of living and dead worms.
The counts of the living and dead worms as a function of time were then analyzed for each of the worm populations and used to prepare Kaplan-Meier survival curves and associated statistics for each of the worm populations. […] The median lifespan is shown as the length of time after the last mitotic division that 50% of the test population remains viable when compared to the control population. The maximum lifespan extension is shown as the length of time after the last mitotic division that 5% of the test population remains viable when compared to the control population.
The counts of the living and dead worms as a function of time and the Kaplan-Meier survival curves and the associated statistics were then analyzed for each of the worm populations. The analysis included determining mean and median lifespan. The analysis included a non-parametric test, the Log-Rank test, which compares two survival functions for the overall lifespan assay and provides a reliable p-value summarizing the whole experiment. The analysis also included Fisher's Exact Test that calculated the significance of survival function comparisons at multiple specific time points throughout the experiment, rather than for the overall lifespan. The results of the analysis are shown below in Tables 10-17.
Phenotypic screening was carried out as described in EXAMPLE 2 for various individual compounds of the N357 formulation. […] Alpha lipoic acid was sourced from PureBulk™ USA as a racemic mix of R and S stereoisomers and was assigned a sample number of N198. Hesperidin was sourced from Sigma Aldrich at ≥80% purity and was assigned a sample number of N347. […]

[6] = target: T4, mTOR (Homo sapiens, UniProt P42345); conditions: cited from earlier work
T4 construct: host or cells: isolated cells in culture (not specified)

PPARδ Fold-Activation ([1]; 0.043 μg/ml): 1.1
PPARδ Fold-Activation ([1]; 0.389 μg/ml): 1.0
PPARδ Fold-Activation ([1]; 1.167 μg/ml): 1.1
PPARδ Fold-Activation ([1]; 3.5 μg/ml): 0.89
PPARγ Fold-Activation ([2]; 0.043 μg/ml): 1.0
PPARγ Fold-Activation ([2]; 0.389 μg/ml): 1.1
PPARγ Fold-Activation ([2]; 1.167 μg/ml): 1.1
PPARγ Fold-Activation ([2]; 3.5 μg/ml): 0.55
PPARα Fold-Activation ([3]; 0.043 μg/ml): 1.4
PPARα Fold-Activation ([3]; 0.389 μg/ml): 1.2
PPARα Fold-Activation ([3]; 1.167 μg/ml): 1.0
PPARα Fold-Activation ([3]; 3.5 μg/ml): 0.79
SMILES: COc1ccc([C@@H]2CC(=O)c3c(O)cc(O)cc3O2)cc1O [Hesperetin, (S)-2,3-Dihydro-5,7-dihydroxy-2-(3-hydroxy-4-methoxyphenyl)-4H-1-benzopyran-4-one]

SMILES: O=c1c(O)c(-c2ccc(O)c(O)c2)oc2cc(O)cc(O)c12 [Quercetin, 2-(3,4-dihydroxyphenyl)-3,5,7-trihydroxy-4H-chromen-4-one]
NF-κB % Inhibition ([4]; 0.84 μg/ml): −6%
Statistically Significant Result [5]: No statistical difference
effect on chronological lifespan [5]: significant negative effect on chronological lifespan

PPARδ Fold-Activation ([1]; 0.007 μg/ml): 1.2
PPARδ Fold-Activation ([1]; 0.022 μg/ml): 1.2
PPARδ Fold-Activation ([1]; 0.067 μg/ml): 1.0
PPARδ Fold-Activation ([1]; 0.20 μg/ml): 1.2
PPARδ Fold-Activation ([1]; 0.60 μg/ml): 1.3
PPARδ Fold-Activation ([1]; 1.81 μg/ml): 1.0
PPARγ Fold-Activation ([2]; 0.007 μg/ml): 1.0
PPARγ Fold-Activation ([2]; 0.022 μg/ml): 1.0
PPARγ Fold-Activation ([2]; 0.067 μg/ml): 0.95
PPARγ Fold-Activation ([2]; 0.20 μg/ml): 0.96
PPARγ Fold-Activation ([2]; 0.60 μg/ml): 0.90
PPARγ Fold-Activation ([2]; 1.81 μg/ml): 1.1
PPARα Fold-Activation ([3]; 0.007 μg/ml): 1.3
PPARα Fold-Activation ([3]; 0.022 μg/ml): 1.3
PPARα Fold-Activation ([3]; 0.067 μg/ml): 1.3
PPARα Fold-Activation ([3]; 0.20 μg/ml): 1.1
PPARα Fold-Activation ([3]; 0.60 μg/ml): 1.0
PPARα Fold-Activation ([3]; 1.81 μg/ml): 0.86
SMILES: COc1cc(/C=C/C(=O)CC(=O)/C=C/c2ccc(O)c(OC)c2)ccc1O [Curcumin, curcumin]
NF-κB % Inhibition ([4]; 0.007 μg/ml): −10%
NF-κB % Inhibition ([4]; 0.60 μg/ml): 30%
mTOR inhibition ([6]; applied to isolated cells in culture): inhibit mTOR
mTOR inhibition, mitophagy and mitochondrial turnover [6]: inhibit mTOR, up-regulate mitophagy, and increase the rate of mitochondrial turnover

SMILES: COc1ccc([C@@H]2CC(=O)c3c(O)cc(O[C@@H]4O[C@H](CO[C@@H]5O[C@@H](C)[C@H](O)[C@@H](O)[C@H]5O)[C@@H](O)[C@H](O)[C@H]4O)cc3O2)cc1O [N347, Hesperidin]
extension of lifespan (Kaplan-Meier figure) ([5]; 0.1 mg/ml): about 10%
% Change in Mean Lifespan ([5]; 0.1 mg/ml compared to DMSO control): +10%
mean lifespan ([5]; 0.1 mg/ml): 14.55 days
Statistically Significant Result [5]: No statistical difference
mean lifespan ([5]; 10 mg/ml): 14.19 days
effect on chronological lifespan [5]: significant positive and dose-dependent increase of chronological lifespan
